# Measurements published in paper PMC4707132 (Journal of medicinal chemistry, 2015).
# How the values were obtained:
# Mcl-1 [1] = target: T1, Mcl-1 (Homo sapiens, UniProt Q07820); assay: bio-layer interferometry; format: binding; conditions: label-free BLI
# Mcl-1 [2] = target: T1, Mcl-1; assay: fluorescence polarization competition assay; format: binding
# in vitro cellular assay = format: cell-based
# Mcl-1 [3] = target: T1, Mcl-1; assay: surface plasmon resonance; format: binding
# Mcl-1 [4] = target: T1, Mcl-1; assay: HSQC chemical shift mapping; format: binding
# T1 sequence (Q07820 whole entry): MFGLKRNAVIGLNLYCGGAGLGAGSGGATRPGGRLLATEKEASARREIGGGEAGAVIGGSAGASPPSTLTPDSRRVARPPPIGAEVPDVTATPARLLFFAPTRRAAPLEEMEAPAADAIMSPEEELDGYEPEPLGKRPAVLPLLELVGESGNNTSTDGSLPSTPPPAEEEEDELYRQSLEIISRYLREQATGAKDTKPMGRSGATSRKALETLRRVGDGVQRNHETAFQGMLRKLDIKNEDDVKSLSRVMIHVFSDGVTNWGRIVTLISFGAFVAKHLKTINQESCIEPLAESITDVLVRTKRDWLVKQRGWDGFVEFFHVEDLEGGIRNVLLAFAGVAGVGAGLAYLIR
structure (smiles),measurement,setting,value
C[C@@]12CC[C@@H]3[C@H](CCC4=CC(=O)CC[C@H]43)[C@H]1CC[C@H]2OC1(O)C(=O)c2ccccc2C1=O [Compound M5],direct binding to Mcl-1,Mcl-1 [1],confirmed the activity
c1cc2c(cc1[C@H]1OC[C@H]3[C@H]1CO[C@H]3c1ccc3c(c1)OCO3)OCO2 [Compound M7],direct binding to Mcl-1,Mcl-1 [1],confirmed the activity
Cc1c(/C=N/N2C=Nc3c([nH]c4ccccc34)C2)c(=O)oc2c3c4c(cc12)CCCN4CCC3 [Compound M1],Ki,Mcl-1 [2],1200 nM
same,direct binding to Mcl-1,Mcl-1 [1],confirmed the activity
COc1cc(C(=O)/C=C/c2ccc([N+](=O)[O-])cc2)c(O)c(OC)c1OC [Compound D14],potency relative to M0,Mcl-1 [2],less potent than M0
COc1cc(/C=C/C(=O)c2ccc(OC)c(OC)c2OC)cc(Cl)c1O [Compound D1],potency of Mcl-1 inhibition relative to M0,Mcl-1 [2],about 7 fold
COc1ccc(C(=O)/C=C/c2cc(Cl)c(O)c(OC)c2)cc1 [Compound D4],potency relative to M0,Mcl-1 [2],potency exceeding that of M0
COc1ccc(C(=O)/C=C/c2cc(F)c(O)c(Cl)c2)c(OC)c1OC [Compound D2],potency of Mcl-1 inhibition relative to M0,Mcl-1 [2],about 7 fold
same,biological effect in cells,in vitro cellular assay,does not exert the desired biological effect
COc1ccc(C(=O)/C=C/c2cc(F)c(O)c(Cl)c2)cc1 [Compound D3],activity relative to D1,Mcl-1 [2],reduced activity
same,potency relative to M0,Mcl-1 [2],potency exceeding that of M0
COc1cc(C(=O)/C=C/c2ccc(O)cc2)c(O)c(OC)c1OC [Compound D7],potency relative to M0,Mcl-1 [2],less potent than M0
"COc1cc(O)c(C(=O)/C=C/c2ccc(O)c(OC)c2)c(OC)c1 [Compound M0, 2’,4-dihydroxy-3,4’,6’-trimethoxychalcone]",direct binding to Mcl-1,Mcl-1 [1],confirmed the activity
same,SPR response,Mcl-1 [3],did not exhibit super-stoichiometric behavior
same,HSQC spectrum,Mcl-1 [4],small number of distinct chemical shift differences
COc1cc(C(=O)/C=C/c2ccc(C(F)(F)F)cc2)c(O)c(OC)c1OC [Compound D13],potency relative to M0,Mcl-1 [2],less potent than M0
COc1ccc(/C=C/C(=O)c2cc(OC)c(OC)c(OC)c2O)cc1 [Compound D12],potency relative to M0,Mcl-1 [2],less potent than M0
COc1ccc(C(=O)/C=C/c2ccc(O)c(F)c2)c(OC)c1OC [Compound D5],activity relative to D1,Mcl-1 [2],reduced activity
same,potency relative to M0,Mcl-1 [2],very similar inhibition constant as M0
